# Results reported in US20100130585A1, “METHODS AND COMPOSITIONS FOR INVESTIGATION AND TREATMENT OF CANCER USING A G-PROTEIN COUPLED EICOSANOID RECEPTOR” (priority 2005, published 2010).
# “Also recorded” adds a separate entry of the source.
# Experiments:
# [1] = system: prostate cancer cells; conditions: exogenous metabolite, previous work [7, 8, 17]; cited from earlier work
# [2] = system: 5-LOX; experiment: Production of 5-oxoETE in PC3 cells measured by LC/MS; assay type: cell-based, human; conditions: 10 micromolar, two hours at 37 degree C, control cells 11 picograms per ml
# Procedure: We also measured the production of 5-oxoETE in PC3 prostate cancer cells by liquid chromatography/mass spectrometry “(LC/MS”) to assess whether prostate cancer cells constitutively produce 5-oxoETE as a survival factor. […] PC3 prostate cancer cells (2 million per plate) were plated in 6 ml RPMI medium in serum-free medium for 24 hours. On the next day cells were treated with 10 micromolar MK591 (a specific 5-LOX inhibitor) for two hours at 37 degree C., or cells were left untreated. The media were collected, eicosanoids extracted, and measured by LC/MS.
# [3] = system: PC3 cells; experiment: Killing of PC3 cells by 5-LOX inhibitor; assay type: cell-based, human; conditions: 10 micromolar
SMILES,prevention of apoptosis triggered by 5-LOX inhibition [1],eicosanoids (5-oxoETE) in serum-free culture medium [2],killing of PC3 cells [3]
"CCCCC/C=C\C/C=C\C/C=C\C=C\C(=O)CCCC(=O)O [5-oxoETE, 5-oxoeicosatetraenoic acid]",prevented; also recorded: more effective,–,–
CC(C)(C)Sc1c(CC(C)(C)C(=O)O)n(Cc2ccc(Cl)cc2)c2ccc(OCc3ccc4ccccc4n3)cc12 [MK591],–,0 picograms per ml,kills PC3 cells
"CCCCC/C=C\C/C=C\C/C=C\C=C\[C@@H](O)CCCC(=O)O [5-HETE, 5(S)-hydroxyeicosatetraenoic acid]",prevented,–,–
